Data on 16 molecules can be found in article PMC8621172, “Manipulating Estrogenic/Anti-Estrogenic Activity of Triphenylethylenes towards Development of Novel Anti-Neoplastic SERMs” (International Journal of Molecular Sciences, 2021).

This assay relates to Ishikawa endometrial adenocarcinoma cell line. Briefly: Alkaline phosphatase (AlkP) activity in Ishikawa cells. The assay is classed as cell-based, human. Conditions: for Relative alkaline phosphatase activity: 72 h, DMSO set to 1; for effect on AlkP activity (in words): 72 h treatment, 5-dose assay 1 nM to 10 µM. How it is done: Alkaline phosphatase (AlkP) activity in these human endometrial cancer cells is markedly stimulated by estrogens.
Because of the potential SERM character of the compounds tested, their estrogenic effects were studied in an endometrial-derived cell culture model, the human endometrial adenocarcinoma cell line Ishikawa. […] All compounds were screened at two concentrations, 0.1 and 1 µM. Its agonistic effect was compared to the vehicle control DMSO (data shown in Supplementary Materials). […] The four compounds were studied in a concentration range of 1 nM to 10 µM.
Estrogens stimulate the activity of alkaline phosphatase (AlkP) in Ishikawa cells (human endometrial adenocarcinoma cells; kindly provided by Prof. Masato Nishida, National Hospital Organization, Kasumigaura Medical Center, Japan). This enzyme activity is estimated by using the chromogen substrate (4-nitrophenylphosphate). […] The procedure was modified by Littlefield et al., 1990 [42].
After 72 h incubation, cells were harvested, washed twice with PBS, and incubated at −80 °C for about 30 min to lyse the cells. After thawing, the lysates were resuspended in reaction buffer (274 mM mannitol, 100 mM CAPS, 4 mM MgCl2, pH 10.4) containing 4 mM p-nitrophenylphosphate (NPP). After incubation for 1 h in the dark, AlkP activity was assayed by using the hydrolysis of p-nitrophenylphosphate to p-nitrophenol at pH 10.4 and the spectrometric determination of the kinetic of the product formation at 405 nm. All compounds were tested in technical triplicates and biological triplicates. Statistical analysis was performed by analysis of variance (ANOVA) and Tukey’s post-hoc test with the significance level of p < 0.05.

For `COc1ccc(C(C)=C(c2ccc(Cl)cc2)c2ccc(OCCN3CCCC3)cc2)cc1` [Compound 11, E/Z-1-(2-{4-[1-(4-Chloro-phenyl)-2-(4-methoxy-phenyl)-propenyl]-phenoxy}-ethyl)-pyrrolidine], the “effect on AlkP activity (in words)” value is “increase the AlkP activity in a dose-pendent manner”. Further, the “Relative alkaline phosphatase activity” value (1 nM) amounted to 1.25 ± 0.61. For the same molecule, the “Relative alkaline phosphatase activity” value (10 nM) was 1.13 ± 0.31. Besides, the “Relative alkaline phosphatase activity” value (100 nM) was determined as 1.75 ± 0.50. In addition, the “Relative alkaline phosphatase activity” value (10 µM) was 1.36 ± 0.38.

As for `COc1ccc(C(C)=C(c2ccc(Cl)cc2)c2ccc(OCCN3CCCC3)cc2)cc1F` [Compound 16, E/Z-1-(2-{4-[1-(4-Chlorophenyl)-2-(3-fluoro-4-methoxyphenyl)-propenyl]-phenoxy}-ethyl)-pyrrolidine], the “Relative alkaline phosphatase activity” value (1 µM) stood at 0.98 ± 0.53.

For `COc1ccc(C(C)=C(c2ccc(Cl)cc2)c2ccc(OCCN(C)C)cc2)cc1F` [Compound 20, E/Z-(2-{4-[1-(4-Chlorophenyl)-2-(3-fluoro-4-methoxyphenyl)-propenyl]-phenoxy}-ethyl)-dimethyl-amine], the “Relative alkaline phosphatase activity” value (1 µM) came to 1.12 ± 0.46.

For the molecule `CC(=C(c1ccc(Cl)cc1)c1ccc(OCCN2CCCCC2)cc1)c1ccccc1` [Compound 7, E/Z-1-(2-{4-[1-(4-Chloro-phenyl)-2-phenyl-propenyl]-phenoxy}-ethyl)-piperidine], the “Relative alkaline phosphatase activity” value (1 µM) stood at 2.55 ± 1.80.

Take `COc1ccc(C(C)=C(c2ccc(Cl)cc2)c2ccc(OCCN3CCOCC3)cc2)cc1F` [Compound 18, E/Z-4-(2-{4-[1-(4-Chlorophenyl)-2-(3-fluoro-4-methoxyphenyl)-propenyl]-phenoxy}-ethyl)-morpholine]: under “1 µM”, the “Relative alkaline phosphatase activity” value is 1.01 ± 0.24.

With `COc1ccc(C(C)=C(c2ccc(O)cc2)c2ccc(Cl)cc2)cc1F` [Compound 3, E/Z-4-[1-(4-Chlorophenyl)-2-(3-fluoro-4-methoxyphenyl)propenyl]-phenol], the “Relative alkaline phosphatase activity” value (1 µM) worked out at 1.13 ± 0.43.

Turning to `CC(=C(c1ccc(Cl)cc1)c1ccc(OCCCN(C)C)cc1)c1ccccc1` [Compound 5, E/Z-(3-{4-[1-(4-Chloro-phenyl)-2-phenyl-propenyl]-phenoxy}-propyl)-dimethyl-amine], the “effect on AlkP activity (in words)” value is listed as “No significant effects”. For the same molecule, the “Relative alkaline phosphatase activity” value (1 nM) was determined as 0.93 ± 0.64. Moreover, under “10 nM”, the “Relative alkaline phosphatase activity” value came out at 0.95 ± 0.37. Where the note is “100 nM”, the “Relative alkaline phosphatase activity” value came out at 1.05 ± 0.30. Also, under “1 µM”, the “Relative alkaline phosphatase activity” value turned out to be 1.08 ± 0.33. Also, the “Relative alkaline phosphatase activity” value (10 µM) is listed as 0.21 ± 0.16.

For the molecule `CC(=C(c1ccc(Cl)cc1)c1ccc(OCCN2CCCC2)cc1)c1ccccc1` [Compound 6, E/Z-1-(2-{4-[1-(4-Chloro-phenyl)-2-phenyl-propenyl]-phenoxy}-ethyl)-pyrrolidine], the “Relative alkaline phosphatase activity” value (1 µM) stood at 2.55 ± 1.35.

Turning to `CC(=C(c1ccc(Cl)cc1)c1ccc(OCCN2CCOCC2)cc1)c1ccccc1` [Compound 8, E/Z-4-(2-{4-[1-(4-Chloro-phenyl)-2-phenyl-propenyl]-phenoxy}-ethyl)-morpholine], the “Relative alkaline phosphatase activity” value (1 µM) is reported as 1.16 ± 0.15.

As to `CC(=C(c1ccc(Cl)cc1)c1ccc(OCCN2CCCCCC2)cc1)c1ccccc1` [Compound 9, E/Z-1-(2-{4-[1-(4-Chloro-phenyl)-2-phenyl-propenyl]-phenoxy}-ethyl)-azepane], the “Relative alkaline phosphatase activity” value (1 µM) is reported as 2.94 ± 1.29.

`CCN(CC)CCOc1ccc(C(=C(C)c2ccc(OC)c(F)c2)c2ccc(Cl)cc2)cc1` [Compound 21, E/Z-(2-{4-[1-(4-Chlorophenyl)-2-(3-fluoro-4-methoxyphenyl)-propenyl]-phenoxy}-ethyl)-diethyl-amine]: the “Relative alkaline phosphatase activity” value (1 µM) is on record as 0.90 ± 0.13.

Take `COc1ccc(C(C)=C(c2ccc(Cl)cc2)c2ccc(OCCCN(C)C)cc2)cc1` [Compound 10, E/Z-(3-{4-[1-(4-Chloro-phenyl)-2-(4-methoxy-phenyl)-propenyl]-phenoxy}-propyl)-dimethyl-amine]: the “Relative alkaline phosphatase activity” value (1 µM) came out at 2.55 ± 1.80.

On to `COc1ccc(C(C)=C(c2ccc(Cl)cc2)c2ccc(OCCN3CCOCC3)cc2)cc1` [Compound 13, E/Z-4-(2-{4-[1-(4-Chloro-phenyl)-2-(4-methoxy-phenyl)-propenyl]-phenoxy}-ethyl)-morpholine], for which the “Relative alkaline phosphatase activity” value (1 µM) was 3.74 ± 2.05.

Turning to `COc1ccc(C(C)=C(c2ccc(Cl)cc2)c2ccc(OCCN3CCCCCC3)cc2)cc1` [Compound 14, E/Z-1-(2-{4-[1-(4-Chloro-phenyl)-2-(4-methoxy-phenyl)-propenyl]-phenoxy}-ethyl)-azepane], the “Relative alkaline phosphatase activity” value (1 µM) worked out at 6.58 ± 2.24.

On to `COc1ccc(C(C)=C(c2ccc(Cl)cc2)c2ccc(OCCCN(C)C)cc2)cc1F` [Compound 15, E/Z-(3-{4-[1-(4-Chlorophenyl)-2-(3-fluoro-4-methoxyphenyl)-propenyl]-phenoxy}-propyl)-dimethyl-amine], for which the “Relative alkaline phosphatase activity” value (1 µM) is reported as 0.86 ± 0.12.

On to `COc1cc(C(C)=C(c2ccc(O)cc2)c2ccc(Cl)cc2)ccc1F` [Compound 4, E/Z-4-[1-(4-Chlorophenyl)-2-(4-fluoro-3-methoxyphenyl)propenyl]-phenol], for which the “Relative alkaline phosphatase activity” value (1 µM) is recorded as 1.10 ± 0.39.
